{"source": "patent US8802597B2", "about": "“Herbicidal pyrimidines” (E I du Pont de Nemours and Company, priority 2003, dated 2014)", "experiment_in_all_cases": "Test C pre/postemergence", "format_in_all_cases": "in vivo", "key": {"[1]": {"system": "cocklebur (Xanthium strumarium)", "conditions": "for Plant response rating (scale of 0 to 100), Cocklebur / Cocklebur plant response rating: Postemergence; for Cocklebur plant response rating: scale 0 to 100 (0 no effect, 100 complete control); for Plant response rating, Cocklebur: Preemergence", "procedure,_shortened": "(§1)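 Greenhouse pot test: seeds treated preemergence, or plants at 2–18 cm (1- to 4-leaf stage) treated postemergence, with compound in non-phytotoxic solvent plus surfactant. Visual rating versus untreated controls after 12–14 days, scale 0 (no effect) to 100 (complete control); dash means not tested.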"}, "[2]": {"system": "eastern black nightshade (Solanum ptycanthum)", "conditions": "Preemergence", "procedure,_shortened": "as §1"}, "[3]": {"system": "pigweed (Amaranthus retroflexus)", "conditions": "for Plant response rating (scale of 0 to 100), Pigweed / Pigweed plant response rating: Postemergence; for Pigweed plant response rating: scale 0 to 100 (0 no effect, 100 complete control); for Plant response rating, Pigweed: Preemergence", "procedure,_shortened": "as §1"}, "[4]": {"system": "morningglory (Ipomoea coccinea)", "conditions": "for Morningglory plant response rating: scale 0 to 100 (0 no effect, 100 complete control); for Plant response rating, Morningglory: Preemergence", "procedure,_shortened": "as §1"}, "[5]": {"system": "common (oilseed) sunflower (Helianthus annuus)", "conditions": "Preemergence", "procedure,_shortened": "as §1"}, "[6]": {"system": "common ragweed (Ambrosia elatior)", "conditions": "for Plant response rating (scale of 0 to 100), Ragweed / Ragweed plant response rating: Postemergence; for Ragweed plant response rating: scale 0 to 100 (0 no effect, 100 complete control); for Plant response rating, Ragweed: Preemergence", "procedure,_shortened": "as §1"}, "[7]": {"system": "kochia (Kochia scoparia)", "conditions": "for Plant response rating (scale of 0 to 100), Kochia / Kochia plant response rating: Postemergence; for Kochia plant response rating: scale 0 to 100 (0 no effect, 100 complete control); for Plant response rating, Kochia: Preemergence", "procedure,_shortened": "as §1"}, "[8]": {"system": "bermudagrass (Cynodon dactylon)", "procedure,_shortened": "as §1"}, "[9]": {"system": "corn (Zea mays)", "conditions": "for Plant response rating (scale of 0 to 100), Corn / Corn plant response rating: Postemergence; for Corn plant response rating: scale 0 to 100 (0 no effect, 100 complete control); for Plant response rating, Corn: Preemergence", "procedure,_shortened": "as §1"}, "[10]": {"system": "woolly cupgrass (Eriochloa villosa)", "conditions": "for Plant response rating (scale of 0 to 100), Cupgrass, Woolly / Cupgrass, Woolly plant response rating: Postemergence; for Cupgrass, Woolly plant response rating: scale 0 to 100 (0 no effect, 100 complete control); for Plant response rating, Cupgrass, Woolly: Preemergence", "procedure,_shortened": "as §1"}, "[11]": {"system": "johnsongrass (Sorghum halepense)", "conditions": "for Plant response rating, Johnsongrass: Preemergence", "procedure,_shortened": "as §1"}, "[12]": {"system": "Surinam grass (Brachiaria decumbens)", "conditions": "for Plant response rating, Surinam Grass: Preemergence", "procedure,_shortened": "as §1"}, "[13]": {"conditions": "16 g ai/ha, scale 0 to 100, 0 no effect, 100 complete control"}, "[14]": {"conditions": "31 g ai/ha, scale 0 to 100, 0 no effect, 100 complete control"}, "[15]": {"conditions": "62 g ai/ha, scale 0 to 100, 0 no effect, 100 complete control"}, "[16]": {"conditions": "Postemergence, 62 g ai/ha, scale 0 to 100 (0 no effect, 100 complete control)"}}}
{"compound": "COC(=O)c1nc(C2CC2)nc(N=CN(C)C)c1Br", "note": "[Compound 19]", "values": [{"measurement": "Plant response rating (scale of 0 to 100), Cocklebur", "setting": "[1]; 16 g ai/ha", "result": 25}, {"measurement": "Plant response rating (scale of 0 to 100), Cocklebur", "setting": "[1]; 31 g ai/ha", "result": 25}, {"measurement": "Cocklebur plant response rating", "setting": "[1]; 62 g ai/ha", "result": 50}, {"measurement": "Cocklebur plant response rating", "setting": "[1]; 125 g ai/ha", "result": 90}, {"measurement": "Plant response rating, Cocklebur", "setting": "[1]; [13]", "result": 15}, {"measurement": "Plant response rating, Cocklebur", "setting": "[1]; [14]", "result": 30}, {"measurement": "Plant response rating, Cocklebur", "setting": "[1]; [15]", "result": 65}, {"measurement": "Plant response rating, Cocklebur", "setting": "[1]; 125 g ai/ha, scale 0 to 100", "result": 80}, {"measurement": "Plant response rating, Nightshade", "setting": "[2]; [13]", "result": 0}, {"measurement": "Plant response rating, Nightshade", "setting": "[2]; [14]", "result": 40}, {"measurement": "Plant response rating, Nightshade", "setting": "[2]; [15]", "result": 100}, {"measurement": "Plant response rating, Nightshade", "setting": "[2]; 125 g ai/ha, scale 0 to 100", "result": 100}, {"measurement": "Plant response rating (scale of 0 to 100), Pigweed", "setting": "[3]; 16 g ai/ha", "result": 50}, {"measurement": "Plant response rating (scale of 0 to 100), Pigweed", "setting": "[3]; 31 g ai/ha", "result": 50}, {"measurement": "Pigweed plant response rating", "setting": "[3]; 62 g ai/ha", "result": 65}, {"measurement": "Pigweed plant response rating", "setting": "[3]; 125 g ai/ha", "result": 65}, {"measurement": "Plant response rating, Pigweed", "setting": "[3]; [13]", "result": 35}, {"measurement": "Plant response rating, Pigweed", "setting": "[3]; [14]", "result": 45}, {"measurement": "Plant response rating, Pigweed", "setting": "[3]; [15]", "result": 70}, {"measurement": "Plant response rating, Pigweed", "setting": "[3]; 125 g ai/ha, scale 0 to 100", "result": 95}, {"measurement": "Plant response rating (scale of 0 to 100), Morningglory", "setting": "[4]; Postemergence, 31 g ai/ha", "result": 55}, {"measurement": "Morningglory plant response rating", "setting": "[4]; Postemergence, 62 g ai/ha", "result": 80}, {"measurement": "Morningglory plant response rating", "setting": "[4]; Postemergence, 125 g ai/ha", "result": 85}, {"measurement": "Plant response rating, Morningglory", "setting": "[4]; [13]", "result": 10}, {"measurement": "Plant response rating, Morningglory", "setting": "[4]; [14]", "result": 10}, {"measurement": "Plant response rating, Morningglory", "setting": "[4]; [15]", "result": 90}, {"measurement": "Plant response rating, Morningglory", "setting": "[4]; 125 g ai/ha, scale 0 to 100", "result": 90}, {"measurement": "Plant response rating, Sunflower", "setting": "[5]; [13]", "result": 10}, {"measurement": "Plant response rating, Sunflower", "setting": "[5]; [14]", "result": 25}, {"measurement": "Plant response rating, Sunflower", "setting": "[5]; [15]", "result": 70}, {"measurement": "Plant response rating, Sunflower", "setting": "[5]; 125 g ai/ha, scale 0 to 100", "result": 90}, {"measurement": "Plant response rating (scale of 0 to 100), Ragweed", "setting": "[6]; 16 g ai/ha", "result": 35}, {"measurement": "Plant response rating (scale of 0 to 100), Ragweed", "setting": "[6]; 31 g ai/ha", "result": 40}, {"measurement": "Ragweed plant response rating", "setting": "[6]; 62 g ai/ha", "result": 70}, {"measurement": "Ragweed plant response rating", "setting": "[6]; 125 g ai/ha", "result": 80}, {"measurement": "Plant response rating, Ragweed", "setting": "[6]; [13]", "result": 55}, {"measurement": "Plant response rating, Ragweed", "setting": "[6]; [14]", "result": 55}, {"measurement": "Plant response rating, Ragweed", "setting": "[6]; [15]", "result": 70}, {"measurement": "Plant response rating, Ragweed", "setting": "[6]; 125 g ai/ha, scale 0 to 100", "result": 80}, {"measurement": "Plant response rating (scale of 0 to 100), Kochia", "setting": "[7]; 16 g ai/ha", "result": 80}, {"measurement": "Plant response rating (scale of 0 to 100), Kochia", "setting": "[7]; 31 g ai/ha", "result": 90}, {"measurement": "Kochia plant response rating", "setting": "[7]; 62 g ai/ha", "result": 90}, {"measurement": "Kochia plant response rating", "setting": "[7]; 125 g ai/ha", "result": 90}, {"measurement": "Plant response rating, Kochia", "setting": "[7]; [13]", "result": 35}, {"measurement": "Plant response rating, Kochia", "setting": "[7]; [15]", "result": 85}, {"measurement": "Plant response rating, Kochia", "setting": "[7]; 125 g ai/ha, scale 0 to 100", "result": 90}, {"measurement": "Plant response rating (scale of 0 to 100), Bermudagrass", "setting": "[8]; Postemergence, 16 g ai/ha", "result": 0}, {"measurement": "Plant response rating (scale of 0 to 100), Bermudagrass", "setting": "[8]; Postemergence, 31 g ai/ha", "result": 5}, {"measurement": "Bermudagrass plant response rating", "setting": "[8]; [16]", "result": 30}, {"measurement": "Plant response rating, Bermudagrass", "setting": "[8]; Postemergence, 125 g ai/ha, scale 0 to 100", "result": 45}, {"measurement": "Plant response rating, Bermudagrass", "setting": "[8]; Preemergence, 16 g ai/ha, scale 0 to 100, 0 no effect, 100 complete control", "result": 0}, {"measurement": "Plant response rating, Bermudagrass", "setting": "[8]; Preemergence, 31 g ai/ha, scale 0 to 100, 0 no effect, 100 complete control", "result": 0}, {"measurement": "Plant response rating, Bermudagrass", "setting": "[8]; Preemergence, 62 g ai/ha, scale 0 to 100, 0 no effect, 100 complete control", "result": 0}, {"measurement": "Plant response rating, Bermudagrass", "setting": "[8]; Preemergence, 125 g ai/ha, scale 0 to 100", "result": 0}, {"measurement": "Plant response rating (scale of 0 to 100), Corn", "setting": "[9]; 16 g ai/ha", "result": 0}, {"measurement": "Plant response rating (scale of 0 to 100), Corn", "setting": "[9]; 31 g ai/ha", "result": 0}, {"measurement": "Corn plant response rating", "setting": "[9]; 62 g ai/ha", "result": 0}, {"measurement": "Corn plant response rating", "setting": "[9]; 125 g ai/ha", "result": 35}, {"measurement": "Plant response rating, Corn", "setting": "[9]; [13]", "result": 0}, {"measurement": "Plant response rating, Corn", "setting": "[9]; [14]", "result": 0}, {"measurement": "Plant response rating, Corn", "setting": "[9]; [15]", "result": 0}, {"measurement": "Plant response rating, Corn", "setting": "[9]; 125 g ai/ha, scale 0 to 100", "result": 0}, {"measurement": "Plant response rating (scale of 0 to 100), Cupgrass, Woolly", "setting": "[10]; 16 g ai/ha", "result": 0}, {"measurement": "Plant response rating (scale of 0 to 100), Cupgrass, Woolly", "setting": "[10]; 31 g ai/ha", "result": 25}, {"measurement": "Cupgrass, Woolly plant response rating", "setting": "[10]; 62 g ai/ha", "result": 65}, {"measurement": "Cupgrass, Woolly plant response rating", "setting": "[10]; 125 g ai/ha", "result": 65}, {"measurement": "Plant response rating, Cupgrass, Woolly", "setting": "[10]; [13]", "result": 0}, {"measurement": "Plant response rating, Cupgrass, Woolly", "setting": "[10]; [14]", "result": 0}, {"measurement": "Plant response rating, Cupgrass, Woolly", "setting": "[10]; [15]", "result": 0}, {"measurement": "Plant response rating, Cupgrass, Woolly", "setting": "[10]; 125 g ai/ha, scale 0 to 100", "result": 0}, {"measurement": "Plant response rating (scale of 0 to 100), Johnsongrass", "setting": "[11]; Postemergence, 16 g ai/ha", "result": 0}, {"measurement": "Plant response rating (scale of 0 to 100), Johnsongrass", "setting": "[11]; Postemergence, 31 g ai/ha", "result": 0}, {"measurement": "Johnsongrass plant response rating", "setting": "[11]; [16]", "result": 0}, {"measurement": "Plant response rating, Johnsongrass", "setting": "[11]; [13]", "result": 0}, {"measurement": "Plant response rating, Johnsongrass", "setting": "[11]; [14]", "result": 0}, {"measurement": "Plant response rating, Johnsongrass", "setting": "[11]; [15]", "result": 35}, {"measurement": "Plant response rating, Johnsongrass", "setting": "[11]; 125 g ai/ha, scale 0 to 100", "result": 55}, {"measurement": "Plant response rating (scale of 0 to 100), Surinam Grass", "setting": "[12]; Postemergence, 16 g ai/ha", "result": 0}, {"measurement": "Plant response rating (scale of 0 to 100), Surinam Grass", "setting": "[12]; Postemergence, 31 g ai/ha", "result": 25}, {"measurement": "Surinam Grass plant response rating", "setting": "[12]; [16]", "result": 45}, {"measurement": "Plant response rating, Surinam Grass", "setting": "[12]; [13]", "result": 0}, {"measurement": "Plant response rating, Surinam Grass", "setting": "[12]; [15]", "result": 0}, {"measurement": "Plant response rating, Surinam Grass", "setting": "[12]; 125 g ai/ha, scale 0 to 100", "result": 10}]}
